Assay results taken from patent US9232796B2, “Herbicidal compositions comprising 4-amino-3-chloro-5-fluoro-6-(4-chloro-2-fluoro-3-methoxyphenyl) pyridine-2-carboxylic acid or a derivative thereof and acetyl-CoA carboxylase (ACCase) inhibitors” (DOW AGROSCIENCES LLC, priority 2012, dated 2016).

What was measured:
[1] = tested on: CYPIR; test: Example V (second) postemergence foliar-applied ternary mixtures, greenhouse, direct seeded rice weeds; type: in vivo, Cyperus iria L.
Protocol: (§1) The treated plants and control plants were placed in a greenhouse as described above and watered by sub-irrigation to prevent wash-off of the test compounds. After approximately 3 weeks, the condition of the test plants as compared with that of the untreated plants was determined visually and scored on a scale of 0 to 100 percent where 0 corresponds to no injury or growth inhibition and 100 corresponds to complete kill.
(§2) Colby's equation was used to determine the herbicidal effects expected from the mixtures (Colby, S. R. 1967. Calculation of the synergistic and antagonistic response of herbicide combinations. Weeds 15:20-22.).
(§3) The following equation was used to calculate the expected activity of mixtures containing three active ingredients, A, B, and C: Expected=A+B+C−((A×B+A×C+B×C)/100)+(A×B×C/10000)

[2] = tested on: ECHCO; test: as above; type: in vivo, Echinochloa colona (L.) Link; details: 17.5 gae/ha
Protocol: as §1, §2, §3

[3] = tested on: SCPJU; test: as above; type: in vivo, Schoenoplectus juncoides (Roxb.) Palla; details: 17.5 gae/ha
Source text: (§4) Seeds or nutlets of the desired test plant species were planted in a soil matrix prepared by mixing a sandy loam or loam soil (e.g., 32 percent silt, 23 percent clay, and 45 percent sand, with a pH of about 6.5 and an organic matter content of about 1.9 percent) and calcareous grit in an 80 to 20 ratio. The soil matrix was contained in plastic pots with a volume of 1 quart and a surface area of 83.6 square centimeters (cm^2). When required to ensure good germination and healthy plants, a fungicide treatment and/or other chemical or physical treatment was applied. The plants were grown for 8-22 days in a greenhouse with an approximate 14 hr. photoperiod which was maintained at about 29° C. during the day and 26° C. during the night. Nutrients (Peters Excel® 15-5-15 5-Ca 2-Mg and iron chelate) were applied in the irrigation solution as needed and water was added on a regular basis. Supplemental lighting was provided with overhead metal halide 1000-Watt lamps as necessary. The plants were employed for testing when they reached the first through fourth true leaf stage.
(§5) Treatments consisted of the benzyl ester of 4-amino-3-chloro-5-fluoro-6-(4-chloro-2-fluoro-3-methoxy-phenyl)pyridine-2-carboxylic acid (Compound A), formulated as an SC (suspension concentrate), an ACCase inhibitor, and a third herbicidal component, each applied alone and in ternary combination. Forms of compound A were applied on an acid equivalent basis.
The ACCase inhibitor component was applied on an active ingredient basis and included cyhalofop-R-butyl formulated as Clincher® SF, fenoxaprop-p-ethyl formulated as RiceStar® HT, and profoxydim formulated as Aura® 20EC. Other herbicidal components were applied on an active ingredient or acid equivalent basis depending on the compound and included penoxsulam formulated as Grasp® SC, bentazon sodium formulated as Basagran®, triclopyr […] (TEA) salt formulated as Grandstand® R, bispyribac sodium formulated as Regiment® 80WP, imazamox ammonium formulated as Beyond®, benzobicyclon, quinclorac formulated as Facet® 75DF, glyphosate dimethylammonium (DMA) salt formulated as Durango® DMA, glufosinate ammonium formulated as Ignite® 280, fentrazamide formulated as an emulsifiable concentrate (EC), propyrisulfuron formulated as Zeta One®, and indanofan (technical grade material).
Treatment requirements were calculated based upon the rates being tested, the concentration of active ingredient or acid equivalent in the formulation, and a 12 mL application volume at a rate of 187 L/ha.
For treatments comprised of formulated compounds, measured amounts of compounds were placed individually in 25 mL glass vials and diluted in a volume of 1.25% (v/v) Agri-Dex® crop oil concentrate to obtain 12× stock solutions. […]

[4] = tested on: ECHCG; test: as above; type: in vivo, Echinochloa crus-galli (L.) Beauv.; details: 17.5 gae/ha
Procedure, shortened: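 Compound A (SC, acid equivalent), an ACCase inhibitor and a third herbicide were sprayed alone and as ternary mixtures postemergence at 187 L/ha with 1.25% v/v crop oil concentrate on greenhouse plants at the 1st–4th true leaf stage (29/26 °C day/night, ~14 h photoperiod). Injury was scored visually at ~3 weeks (0–100%) against untreated plants, and Colby's equation gave the expected mixture effects.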

[5] = tested on: FIMMI; test: Example VI in-water applied ternary mixtures, greenhouse, transplanted paddy rice weeds; type: in vivo, Fimbristylis miliacea (L.) Vahl
Protocol: (§6) Weed seeds or nutlets of the desired test plant species were planted in puddled soil (mud) prepared by mixing a shredded, non-sterilized mineral soil (50.5 percent silt, 25.5 percent clay, and 24 percent sand, with a pH of about 7.6 and an organic matter content of about 2.9 percent) and water at a 1:1 volumetric ratio. The prepared mud was dispensed in 365 mL aliquots into 16-ounce (oz.) non-perforated plastic pots with a surface area of 86.59 square centimeters (cm^2) leaving a headspace of 3 centimeters (cm) in each pot. Mud was allowed to dry overnight prior to planting or transplanting. Rice seeds were planted in Sun Gro MetroMix® 306 planting mixture, which typically has a pH of 6.0 to 6.8 and an organic matter content of about 30 percent, in plastic plug trays. Seedlings at the second or third leaf stage of growth were transplanted into 860 mL of mud contained in 32-oz. non-perforated plastic pots with a surface area of 86.59 cm^2 4 days prior to herbicide application. The paddy was created by filling the headspace of the pots with 2.5 to 3 cm of water. When required to ensure good germination and healthy plants, a fungicide treatment and/or other chemical or physical treatment was applied. The plants were grown for 4-22 days in a greenhouse with an approximate 14 hr. photoperiod which was maintained at about 29° C. during the day and 26° C. during the night. Nutrients were added as Osmocote® (19:6:12, N:P:K+minor nutrients) at 2 g per 16-oz. pot and 4 g per 32-oz. pot. Water was added on a regular basis to maintain the paddy flood, and supplemental lighting was provided with overhead metal halide 1000-Watt lamps as necessary. The plants were employed for testing when they reached the first through fourth true leaf stage.
as §5, with “inhibitor herbicide,” for “inhibitor,”
(§7) The ACCase inhibitor component was applied on an active ingredient basis and included cyhalofop-R-butyl formulated as Clincher® G and metamifop formulated as Metamifop EC. Other herbicidal components were applied on an active ingredient or acid equivalent basis depending on the compound and included penoxsulam formulated as Grasp® SC, bentazon sodium formulated as Basagran®, triclopyr […] (TEA) salt formulated as Grandstand® R, benzobicyclon formulated as Benzobicyclon, benfuresate formulated as Full Slot® WG, pyraclonil formulated as Pyraclon® Flowable, mefenacet (technical grade material), and pretilachlor (technical grade material).
(§8) Treatment requirements for each compound or herbicidal component were calculated based upon the rates being tested, the concentration of active ingredient or acid equivalent in the formulation, an application volume of 1 mL per component per pot, and an application area of 86.59 cm^2 per pot.
(§9) For formulated compounds, a measured amount was placed in an individual 100 or 200 mL glass vial and was dissolved in a volume of 1.25% (v/v) Agri-Dex® crop oil concentrate to obtain application solutions.
(§10) For technical grade compounds, a weighed amount was placed in an individual 100 to 200 mL glass vial and was dissolved in a volume of acetone to obtain concentrated stock solutions.
(§11) Applications were made by injecting with a pipetter appropriate amounts of the application solutions, into the aqueous layer of the paddy. Control plants were treated in the same manner with the solvent blank. Applications were made so that all treated plant material received the same concentrations of acetone and crop oil concentrate.
(§12) The treated plants and control plants were placed in a greenhouse as described above and water was added as needed to maintain a paddy flood. […]

[6] = tested on: ECHOR; test: as above; type: in vivo, Echinochloa oryzoides (Ard.) Fritsch
Protocol: as §6
as §5, with “inhibitor herbicide,” for “inhibitor,”
as §7, §8, §9, §10, §11, §12

[7] = tested on: IPOHE; test: Example V (second) postemergence foliar-applied ternary mixtures, greenhouse, direct seeded rice weeds; type: in vivo, Ipomoea hederacea Jacq.; details: Penoxsulam 8.75 gai/ha
Source text: (§13) All stock solutions and applications solutions were visually inspected for compound compatibility prior to application. Spray solutions were applied to the plant material with an overhead Mandel track sprayer equipped with a 8002E nozzles calibrated to deliver 187 L/ha over an application area of 0.503 m^2 at a spray height of 18 inches (46 cm) above average plant canopy height. Control plants were sprayed in the same manner with the solvent blank.
as §1, §2, §3

[8] = tested on: SCPMA; test: Example VI in-water applied ternary mixtures, greenhouse, transplanted paddy rice weeds; type: in vivo, Schoenoplectus maritimus (L.) Lye; details: 5 gai/ha
Protocol: as §11
as §1, with “water was added as needed” for “watered by sub-irrigation”, “maintain a paddy flood.” for “prevent wash-off of the test compounds.”, “weeks” for “weeks,”
as §2
The following equation was used to calculate the expected activity of mixtures containing three active ingredients, A. B, and C: Expected=A+B+C−((A×B+A×C+B×C)/100)+(A×B×C/10000)

[9] = tested on: ECHCG; test: as above; type: in vivo, Echinochloa crus-galli (L.) Beauv.
Procedure, shortened: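 Compound A (SC, acid-equivalent basis) alone or with cyhalofop-R-butyl or metamifop plus a third herbicide, injected into paddy water of greenhouse-grown transplanted rice and weeds at 1st–4th leaf stage (~29/26 °C). Visual injury scored 0–100% after ~3 weeks vs untreated; expected mixture effects by Colby's equation.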

[10] = tested on: CYPRO; test: as above; type: in vivo, Cyperus rotundus L.
Protocol: as §6
as §5, with “inhibitor herbicide,” for “inhibitor,”
as §7, §8, §9, §10, §11, §12

[11] = tested on: ECHOR; test: Example V (second) postemergence foliar-applied ternary mixtures, greenhouse, direct seeded rice weeds; type: in vivo, Echinochloa oryzoides (Ard.) Fritsch
Protocol: as §4, with “When required to ensure good germination and healthy plants, a fungicide treatment and/or other chemical or physical treatment was applied.” left out
as §5
For treatments comprised of formulated compounds, measured amounts of compounds were placed individually in 25 mL glass vials and diluted in a volume of 1.25% (v/v) Agri-Dex® crop oil concentrate to obtain 12× stock solutions. […] Application solutions were prepared by adding an appropriate amount of each stock solution (e.g., 1 mL) and diluted to the appropriate final concentrations with the addition of 9 mL of an aqueous mixture of 1.25% (v/v) crop oil concentrate so that the final spray solutions contained 1.25% (v/v) crop oil concentrate.
As required, additional water and/or 97:3 v/v acetone/DMSO was added to individual application solutions so that the final acetone and DMSO concentrations of the application solutions being compared were 8.1% and 0.25%, respectively.
as §13, §1, §2, §3

[12] = tested on: SCPJU; test: Example VI in-water applied ternary mixtures, greenhouse, transplanted paddy rice weeds; type: in vivo, Schoenoplectus juncoides (Roxb.) Palla; details: 17.5 gai/ha
Protocol: as §6
as §5, with “inhibitor herbicide,” for “inhibitor,”
The ACCase inhibitor component was applied on an active ingredient basis and included cyhalofop-R-butyl formulated as Clincher® G and metamifop formulated as Metamifop EC. […]
as §8
For formulated compounds, a measured amount was placed in an individual 100 or 200 mL glass vial and was dissolved in a volume of 1.25% (v/v) Agri-Dex® crop oil concentrate to obtain application solutions. […]

CCN(CC)CC.O=C(O)COc1nc(Cl)c(Cl)cc1Cl [Triclopyr TEA Salt]
Visual Weed Control (%) - 21 DAA CYPIR Obs ([1]; 17.5 gae/ha): 0% | Visual Weed Control (%) - 21 DAA ECHCO Obs [2]: 3% | Visual Weed Control (%) - 21 DAA SCPJU Obs [3]: 43% | Visual Weed Control (%) - 21 DAA ECHCG Obs [4]: 0%

COc1cnc(OC)n2nc(NS(=O)(=O)c3c(OCC(F)F)cccc3C(F)(F)F)nc12 [Penoxsulam]
Visual Weed Control (%) - 21 DAA FIMMI Obs ([5]; 1.25 gai/ha): 33% | Visual Weed Control (%) - 24 DAA FIMMI Obs ([5]; 2.5 gai/ha): 60% | Visual Weed Control (%) - 24 DAA ECHOR Obs ([6]; Table 71, 5 gai/ha): 65% | Visual Weed Control (%) - 24 DAA ECHOR Obs ([6]; Table 71, 10 gai/ha): 93% | Visual Weed Control (%) - 21 DAA IPOHE Obs [7]: 48% | Visual Weed Control (%) - 22 DAA CYPIR Obs ([1]; 4.38 gai/ha): 50% | Visual Weed Control (%) - 24 DAA SCPMA Obs [8]: 30% | Visual Weed Control (%) - 21 DAA ECHCG Obs ([9]; 1.25 gai/ha, first sub-table): 17% | Visual Weed Control (%) - 21 DAA ECHCG Obs ([9]; 2.5 gai/ha, second sub-table): 55% | Visual Weed Control (%) - 21 DAA CYPRO Obs ([10]; 1.25 gai/ha): 0% | Visual Weed Control (%) - 24 DAA CYPRO Obs ([10]; 2.5 gai/ha): 0% | Visual Weed Control (%) - 24 DAA CYPRO Obs ([10]; 5 gai/ha): 0% | Visual Weed Control (%) - 22 DAA ECHOR Obs ([11]; 4.38 gai/ha): 45% | Visual Weed Control (%) - 22 DAA ECHOR Obs ([11]; 8.75 gai/ha): 53%

CCN(CC)CC.O=C(O)COc1nc(Cl)c(Cl)cc1Cl [Triclopyr TEA]
Visual Weed Control (%) - 21 DAA ECHCG Obs ([9]; 17.5 gai/ha, first set): 0% | Visual Weed Control (%) - 21 DAA ECHCG Obs ([9]; 35 gai/ha, second set): 0% | Visual Weed Control (%) - 21 DAA SCPJU Obs [12]: 8%
